Results reported in patent US20060089318A1, “Inhibitors of adp-ribosyl transferases, cyclases, and hydrolases” (priority 2002, published 2006).
Like-named read-outs stand apart in the source and are kept apart here.

What was measured:
human CD38 [1] = target: T1, human CD38 (Homo sapiens, UniProt P28907); assay: Competitive and slow-onset inhibition of CD38-catalyzed conversion of NGD+ to cGDPR (295 nm absorbance); type: biochemical; design: The soluble domain of human CD38 catalyzes the conversion of NAD^+ to cyclic-ADP-ribose; settings: for Inhibition of CD38 conversion of NGD+ to cGDPR: even at millimolar concentrations of compound; for Ki: 19° C.
T1 sequence (P28907 43-300 limits assumed): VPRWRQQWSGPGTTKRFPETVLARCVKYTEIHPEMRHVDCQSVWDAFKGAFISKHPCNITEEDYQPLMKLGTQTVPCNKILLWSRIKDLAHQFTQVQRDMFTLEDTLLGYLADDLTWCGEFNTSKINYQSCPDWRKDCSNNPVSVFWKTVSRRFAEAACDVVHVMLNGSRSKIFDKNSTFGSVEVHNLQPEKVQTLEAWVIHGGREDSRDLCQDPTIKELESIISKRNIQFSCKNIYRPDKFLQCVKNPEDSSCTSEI
Protocol: Determination of Ki and kon by competitive method. To 1 mL solutions of 50 mM potassium phosphate pH 7.2 and 100 μM NGD^+ containing, 50, 25, 12.5, and 6.25 and 0 μM inhibitor 1 was added 2 μL of 7 μM CD38. Reaction progress upon initiation by enzyme addition was monitored by measurement of […] absorbance. The initial slopes were used to determine the Ki value, and all points of the experiment were fit to the equation A(t)=vt+(b−v)(1−exp(−kt))/k+A0 where k is the observed rate constant, b is the initial rate, v is the final rate and A0 is the initial absorbance was used to evaluate kon.
Determination of Competitive Inhibition by Initial Rates: The inhibitors 1-3 were evaluated for inhibition of CD38 enzymatic activity using a spectrophotometric assay. CD38 catalyzes the conversion of NGD^+ to cyclic-GDP ribose (cGDPR, Scheme 4) and product formation can be monitored by 295 nm absorbance measurement. […] A similar reaction containing 40 μM NGD^+ at several concentrations of 2 was also performed (FIG. 3).
Slow Phase Inhibition. […] This slow phase was not due to substrate depletion and was attributable to a kinetic process leading to progressive inhibition of the enzyme. The “slow-onset” absorbance curves could be fit using the equation At=vit+(vi−vf)(1−exp(−kt))/k+A0 where At is absorbance, vi is initial velocity, vf is final velocity, t is time in s, k is the rate of the slow onset process and A0 is absorbance of the sample at initial time. These fits are shown by the solid lines in FIG. 2 and FIG. 3. The rate constant for the slow phase could be obtained from the average value of k determined from the separate fits. The value of k for 1 was determined to be 0.0042±0.001 s^−1 and the value of k for 2 was determined to be 0.0083±0.002 s^−1. The parameter k is defined as kon in Scheme 5. [drawing 22]
Calculation of Total Inhibition. […] This equation is valid for slow onset behavior inhibitors and also mechanistic based inactivators of enzymes where a slow recovery of the enzyme from chemical inactivation is present.

human CD38 [2] = target: T1, human CD38; settings: read-out: Apparent Km for nicotinamide rescue of CD38 activity; CD38 preinhibited by 2
Protocol: 10 mL CD38 (1 μM) in K2PO4H was incubated with 2 (10 μM) for 30 minutes at room temperature and subsequently placed on ice. […] To a two syringe Applied Photophysics spectrophotometer in fluorescence mode was added inhibited enzyme to one syringe and NGD^+ solution to the other. Fluorescence was used to monitor cGDPR formation and the total fluorescence curves fit using the activity recovery equation. F(t)=vt+(b−v)(1−exp(−kt))/k+F0 where k is the observed rate constant, b is the initial rate, v is the final rate and F0 is the initial absorbance.
A stopped flow, two syringe fitted spectrophotometer was used to perform the experiments. The fluorescence of cGDPR was measured as a function of time to generate curves that contain an exponential and a linear phase prior to substrate exhaustion. These curves were fit to the equation Ft=vft+(vi−vf)(1−exp(−kt))/k+F0 as previously defined.

CD38 [3] = target: T2, CD38 (Homo sapiens, UniProt P28907); settings: read-out: Apparent Km for nicotinamide rescue; CD38 inactivated by ara-F-NMN+; cited from earlier work
T2 sequence (P28907 45-300 limits assumed): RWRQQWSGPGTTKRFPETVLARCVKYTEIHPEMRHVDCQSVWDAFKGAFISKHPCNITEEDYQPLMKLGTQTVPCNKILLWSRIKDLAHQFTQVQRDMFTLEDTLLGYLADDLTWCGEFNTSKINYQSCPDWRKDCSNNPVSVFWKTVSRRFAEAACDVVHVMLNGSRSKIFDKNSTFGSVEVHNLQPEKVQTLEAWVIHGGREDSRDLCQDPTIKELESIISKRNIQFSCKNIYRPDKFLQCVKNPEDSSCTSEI

human CD38 [4] = target: T1, human CD38; assay: CD38-catalyzed base-exchange reaction of 2 with nicotinamide to form 1 (HPLC); type: biochemical; design: The soluble domain of human CD38 catalyzes the conversion of NAD^+ to cyclic-ADP-ribose
Protocol: Base-exchange reaction. […] These reactions were run separately in autosampler tubes held at 19° C. in a temperature regulated autosampler and assayed by multiinjection HPLC using 5 mM K2PO4H pH 5.0 and 2.5% MeOH as eluant. The quantity of 2 reacted and the quantity of 1 formed versus time was determined by integrations of the peaks for 1 and 2 with comparison to standards.

human CD38 [5] = target: T1, human CD38; assay: Radiochemical measurement of inhibitor binding (labeling of CD38 by [2'-3H] inhibitor, gel filtration and scintillation counting); design: The soluble domain of human CD38 catalyzes the conversion of NAD^+ to cyclic-ADP-ribose; settings: 25° C.; 9 μM inhibitor, 1.2 μM CD38 monomer
Protocol: Radiochemical measurement of inhibitor binding. […] Inhibitor at 9 μM with specific radioactivity of 866 cpm/nmol, was incubated with 1.2 μM CD38 (monomer) in 1 mL 50 mM potassium phosphate (pH 7.5). The reactions were started by enzyme addition and quenched by freezing with a dry ice/acetone bath at 30, 60 90, 120, 250, 500, and 1000 s. Cooled (0° C.) gel filtration columns were used to separate protein with cooled (0° C.) 10 mM potassium phosphate as eluant. The frozen fraction were quickly thawed, applied to these columns and fractions collected in 1 mL volumes over the course of several minutes. Scintillation fluid (9 mL) was then added to each 1 mL fraction and samples counted. […] The observed radioactivity was fit using the equation A(t)=A0(1−exp(−kt))+B. where A0 is activity at reaction completion, k is the observed pseudo-first order rate constant and B is the activity of the blank.
Titration of Enzyme with [2′-^3H]Inhibitor. CD38 inactivation was accomplished using a radiolabeled inhibitor to assess inhibitor interactions with the enzyme independent from inhibition of the catalytic activity. This method allows the determination of the stoichiometry of covalent labeling, and detects cooperativity at multiple sites. […] (FIG. 8) within reasonable agreement with the rate constant for inactivation in kinetic assays of inhibition (kon=0.0042 s^−1 at 19° C.). […]

CD38 [6] = target: T2, CD38; settings: comparison values for substrates; read-out: Km of substrate for CD38; cited from earlier work
[7] = Solution hydrolysis (chemical stability); type: physicochemical
Source text: Without being bound to any particular mechanism, it is believed that the electron-contributing moiety on A stabilizes the compounds of the invention such that they are less susceptible to hydrolysis from the rest of the compound. For example, the compound β-1′-5-methyl-nicotinamide-2′-deoxyribose (established as an effective inhibitor of CD38 in Example 1) was compared with β-1′-nicotinamide-2′-deoxyribose in its ability to resist solution hydrolysis. […] This difference in chemical stability means that β-1′-nicotinamide-2′-deoxyribose is 50% depleted from solution in 2 hours, whereas β-1′-5-methyl-nicotinamide-2′-deoxyribose is not hydrolyzed by 50% until 12 hours. This improved chemical stability improves the value of the compound, since it is available for action for longer periods of time in biological systems due to resistance to hydrolytic breakdown.

human CD38 [8] = target: T1, human CD38; assay: Off-rate measurement: recovery of inhibited CD38 in excess NGD+; type: biochemical; design: The soluble domain of human CD38 catalyzes the conversion of NAD^+ to cyclic-ADP-ribose; settings: 19° C.
Protocol: Off-Rate Measurement. 500 nM CD38 in 50 mM potassium phosphate pH 7.2 was incubated with 15 μM inhibitor for 30 min at room temperature. 5 μL of the enzyme inhibitor solution was added to a cuvette containing 1 mL reaction of 50 mM potassium phosphate pH 7.5 containing 300 μM NGD^+ pre-chilled to 19° C. Production of […] was determined by monitoring […] absorbance. The absorbance was fit to the equation A(t)=vt+(b−v) (1−exp(−kt))k+A0 where A(t) is the absorbance, k is the rate constant of recovery, b is the initial rate, v is the final rate and A0 is the initial absorbance. A control lacking inhibitor but in all other respects identical was also run.
Recovery from Inhibition. […] The solution 295 nm absorbance is monitored spectrophotometrically to assay conversion of NGD^+ to cGDPR as a consequence of regain of CD38 catlytic activity. […] The absorbance curves with the same equation used for slow-onset: At=vit+(vi−vf)(1−exp(−kt))/k+A0 where At is absorbance, vi is initial velocity, vf is final velocity, t is time in s, k is the rate of the recovery rate constant and A0 is the absorbance of the sample at initial time. The rate constant for the recovery phase was obtained from the average value of k determined from the separate fits. The value of koff for 1 was determined to be 1.5×10^−5 s^−1 and for 2 was determined to be 2.5×10^−5 s^−1.

CD38 [9] = settings: literature values (Sauve et al., 2000; Muller-Steffner et al., 1992); cited from earlier work
[10] = 10 mM potassium phosphate, pH 6.5, 25° C.
[11] = 100 μM NGD+ for 1, 40 μM NGD+ for 2, 50 mM potassium phosphate pH 7.2, read-out: Ki (competitive inhibition, from initial rates)
[12] = calculated from the kinetic parameters, read-out: Ki(total) = (koff/kon)*Ki, effective dissociation constant

Q: With `OC[C@H]1O[C@@H]([n+]2ccccc2)C[C@@H]1O` [inhibitor 3, β-pyridyl-deoxyriboside] as the compound, how does the “Inhibition of CD38 conversion of NGD+ to cGDPR” value (“Inhibition … to cGDPR” below) (human CD38 [1]) read?
A: The value was “did not inhibit”.

Q: Which “Inhibition … to cGDPR” value (human CD38 [1]) does the source give for `Cc1cc(C(N)=O)c[n+](C2CC(O)C(CO)O2)c1` (single isomer, unassigned) [α isomer of 2] here?
A: Its value is “did not inhibit”.

Q: With `NC(=O)c1cccnc1` [nicotinamide] as the compound, how does the Km (human CD38 [2]) read?
A: Its Km is 2400 µM.

Q: What about the Km (CD38 [3]) of the same compound?
A: Its Km is 17000 µM.

Q: What about the Km (human CD38 [4]; read-out: Km of nicotinamide for steady state base exchange, 75 μM 2, 1 μM CD38, 19° C.) of the same compound?
A: The Km was 920 µM.

Q: With `NC(=O)c1ccc[n+](C2CC(O)C(CO)O2)c1` (single isomer, unassigned) [α isomer of 1] as the compound, how does the “Inhibition … to cGDPR” value (human CD38 [1]) read?
A: The value was “did not inhibit”.

Q: Which “Rate constant of radiochemical labeling of CD38 (kchem)” value (human CD38 [5]) does the source give for `[3H]C1[C@H]([n+]2cccc(C(N)=O)c2)O[C@H](CO)[C@H]1O` (stereo partly shown) [[2-^3H]-1, [2′-^3H]Nicotinamide deoxyriboside] here?
A: The value was 0.01 s⁻¹.

Q: For `NC(=O)c1ccc[n+]([C@@H]2O[C@H](COP(=O)([O-])OP(=O)(O)OC[C@H]3O[C@@H](n4cnc5c(=O)[nH]c(N)nc54)[C@H](O)[C@@H]3O)[C@@H](O)[C@H]2O)c1` [NGD^+, nicotiramide guanine dinucleotide], which Km (CD38 [6]) is on record?
A: Its Km is 2.5 µM.

Q: For `NC(=O)c1ccc[n+]([C@H]2C[C@H](O)[C@@H](CO)O2)c1` [inhibitor 1, β-nicotinamide-2′-deoxyriboside], which “Rate constant for solution hydrolysis” value [7, 10] is on record?
A: The value was 9.6e-05 s⁻¹.

Q: And the “Time to 50% depletion from solution by hydrolysis” value [7]?
A: Its value is 2 h.

Q: And the Ki (human CD38 [1]; [11])?
A: Its Ki is 1200 nM.

Q: And the Ki (human CD38 [1]; [12])?
A: Its Ki is 4.5 nM.

Q: What about the “koff (rate constant of recovery from inhibition)” value (human CD38 [8]) of the same compound?
A: Its value is about 2e-05 s⁻¹.

Q: And the “Rate constant of radiochemical labeling of CD38 (kchem)” value (human CD38 [5])?
A: Its value is 0.01 s⁻¹.

Q: With `NC(=O)c1ccc[n+]([C@@H]2O[C@H](COP(=O)([O-])OP(=O)(O)OC[C@H]3O[C@@H](n4cnc5c(N)ncnc54)[C@H](O)[C@@H]3O)[C@@H](O)[C@H]2O)c1` [NAD^+, nicotinamide adenine dinucleotide] as the compound, how does the Km (CD38 [6]) read?
A: Its Km is 15 µM.

Q: Which Ki (CD38 [9]) does the source give for `NC(=O)c1ccc[n+]([C@@H]2O[C@H](COP(=O)([O-])OP(=O)(O)OC[C@H]3O[C@@H](n4cnc5c(N)ncnc54)[C@H](O)[C@@H]3O)[C@@H](O)[C@H]2F)c1` [ara-F-NAD^+] here?
A: The Ki was 169 nM.

Q: For `NC(=O)c1ccc[n+]([C@@H]2O[C@H](COP(=O)(O)O)[C@@H](O)[C@H]2O)c1` [NMN^+], which Km (CD38 [6]) is on record?
A: The Km was 150 µM.

Q: Which results are given for `Cc1cc(C(N)=O)c[n+]([C@H]2C[C@H](O)[C@@H](CO)O2)c1` [inhibitor 2, β-5-methyl-nicotinamide-2′-deoxyriboside]?
A: Decrease in the rate of hydrolysis versus β-1′-nicotinamide-2′-deoxyribose (factor) [7, 10]: 6; Rate constant for solution hydrolysis [7, 10]: 1.5e-05 s⁻¹; Time to 50% depletion from solution by hydrolysis [7]: 12 h; Ki (human CD38 [1]; [11]): 4000 ± 500 nM; Ki (human CD38 [1]; [12]): 12.5 nM; koff (rate constant of recovery from inhibition) (human CD38 [8]): ~2e-05 s⁻¹; kcat of base exchange (2 to 1) (human CD38 [4]; 75 μM 2, 1 μM CD38, nicotinamide 0-40 mM, 19° C.): 0.007 s⁻¹

Q: Which Ki (CD38 [9]) does the source give for `NC(=O)c1ccc[n+]([C@@H]2O[C@H](COP(=O)(O)O)C(O)C2F)c1` (stereo partly shown) [ara-F-NMN^+] here?
A: Its Ki is 61 nM.
